# Results reported in patent publication US20240261294A1, “METHOD FOR TREATING IDH INHIBITOR-RESISTANT SUBJECTS” (Eli Lilly and Company, priority 2021, published 2024).
# Changes are numbered by the printed parent chain. Read-outs that look alike come from different tables or passages of the source.
# Columns and labels:
# IDH2 R140Q = molecular target: T1, IDH2 R140Q (Homo sapiens, UniProt P48735, R140Q); assay: Inhibition of 2-HG production in IDH2 mutant U-87 MG cells; format: cell-based
# T1 construct: expressed in transfected cells; host or cells: U-87 MG
# T1 sequence (P48735 40-452 R140Q): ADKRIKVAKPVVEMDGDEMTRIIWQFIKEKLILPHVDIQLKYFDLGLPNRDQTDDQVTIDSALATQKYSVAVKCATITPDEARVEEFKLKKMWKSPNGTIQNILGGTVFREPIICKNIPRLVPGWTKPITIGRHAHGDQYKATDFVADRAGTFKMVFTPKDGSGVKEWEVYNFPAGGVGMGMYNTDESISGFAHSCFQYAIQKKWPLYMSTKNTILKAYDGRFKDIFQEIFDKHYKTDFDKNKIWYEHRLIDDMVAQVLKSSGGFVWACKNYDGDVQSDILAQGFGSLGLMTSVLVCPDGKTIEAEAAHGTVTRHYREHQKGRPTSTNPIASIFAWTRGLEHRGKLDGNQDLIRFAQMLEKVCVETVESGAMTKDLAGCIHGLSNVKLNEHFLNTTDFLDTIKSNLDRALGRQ
# IDH2 R140Q + 1319M trans = molecular target: T2, IDH2 R140Q + 1319M trans (Homo sapiens, UniProt P48735, I319M/R140Q); assay: as above; format: cell-based; settings: 72 hours incubation, 12.5K cells/well
# T2 sequence (P48735 40-452 R140Q): T1 sequence (P48735 40-452 R140Q)
# T2 sequence (P48735 40-452 I319M): T1 sequence (P48735 40-452 R140Q) with Q101R, I280M
structure (smiles),measurement,setting,value
"C=CC(=O)N1CCN([C@@H](CC2CC2)c2ccc([C@H](C)Nc3ncc4c(n3)N(CC)C(=O)OC4)cc2)CC1 [Compound A, 7-[[(1S)-1-[4-[(1S)-2-cyclopropyl-1-(4-prop-2-enoylpiperazin-1-yl)ethyl]phenyl]ethyl]amino]-1-ethyl-4H-pyrimido[4,5-d][1,3]oxazin-2-one]",IC50,"IDH2 R140Q; 16 hours incubation, 50K cells/well, 100 μl media/well, read-out: Relative IC50 (nM) Mean, inhibition of 2-HG production",223 nM
same,IC50,"IDH2 R140Q; 72 hours incubation, 12.5K cells/well, 150 μl media/well, read-out: IC50, inhibition of 2-HG production",28.4 nM
same,IC50,"IDH2 R140Q + 1319M trans; IDH2 R140Q + 1319M trans, 150 μl media/well, read-out: IC50, inhibition of 2-HG production",12.7 nM
same,IC50,"IDH2 R140Q + 1319M trans; IDH2 R140Q_I319M trans, read-out: Relative IC50 (nM) Mean, inhibition of 2-HG production",18 nM
